Source: the METLIN SMRT retention time set (Domingo-Almenara et al. 2019)

Assay: gradient 5% acetonitrile 3 min, to 50% in 2 min, to 85% in 15 min, held 3 min, 100 µL/min
Conditions: column: Zorbax Extend-C18 2.1 x 50 mm; eluents: water / acetonitrile, 0.1% formic acid
Procedure, shortened: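 The system's dead and dwell volumes were 40 μL and 900 μL, with a Zorbax Extend-C18 column (2.1 × 50 mm, 1.8 μm) run at 100 μL/min in water and acetonitrile containing 0.1% formic acid each. Pure standards were analyzed in mixtures of ~100 molecules by HPLC–quadrupole time-of-flight mass spectrometry in positive and negative ionization mode. Retention time was assigned from computationally picked, manually inspected adduct peaks.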

Work on `Fc1ccc(F)c(CNc2nnc(-c3nc(C4CC4)no3)c3ccccc23)c1` yielded an RP-LC retention time of 672 s.

In the case of `CCn1c(=O)c(C(=O)NCc2ccc(C)o2)nc2cccnc21`, the RP-LC retention time is reported as 766 s.

With `COc1cccc(N2CCN(c3ccnc(SCC(=O)NCCC4=CCCCC4)n3)CC2)c1` the RP-LC retention time was 862 s.

Compound `Cn1cc2c(n1)c(=O)n(Cc1ccc(F)cc1)c1nn(Cc3ccccc3F)c(=O)n21` has an RP-LC retention time of 1020 s.

Work on `CC1CCCN(c2ccc(NC(=O)c3cccs3)cc2C(=O)O)C1` (stereo unspecified) yielded an RP-LC retention time of 666 s.

`Cc1ccc(CNC(=O)c2ccc3cnn(Cc4ccc(F)cc4)c3c2)o1` showed an RP-LC retention time of 916 s.

Work on `Cc1ccccc1C(=O)N1C[C@@H]2C[C@H]1C[C@@H]2NS(=O)(=O)c1cccs1` yielded an RP-LC retention time of 776 s.

`COc1cccc(-c2nc(-c3ccc4c(c3)oc(=O)n4C(C)C)no2)c1OC` showed an RP-LC retention time of 1140 s.

In the case of `CCOC(=O)C1=C(C)NC(=O)NC1c1c(F)cccc1Cl` (stereo unspecified), the RP-LC retention time is reported as 724 s.

`CCOC(=O)c1ccc(NC(=O)Cn2c(=O)n(-c3ccccc3)c(=O)c3c2cc(C)n3C)cc1` showed an RP-LC retention time of 854 s.

With `Cc1ccc(NC(=O)N2CCCC(Cn3cnc4cccnc43)C2)c(Cl)c1` (stereo unspecified) the RP-LC retention time was 682 s.

Compound `COc1cccc(Oc2ncc(-c3cccc(C(=O)NC4CC4)c3)cn2)c1` has an RP-LC retention time of 797 s.

With `COc1ccc(NC(=O)COc2cc(C)nc(N3CCN(c4ccccc4)CC3)n2)cc1` the RP-LC retention time was 781 s.

Compound `CCc1ccc(-c2noc(Cn3cnc4c(nnn4-c4ccccc4OC)c3=O)n2)cc1` has an RP-LC retention time of 1040 s.

For `COCCN1CCn2cc(S(=O)(=O)NCc3ccc(F)cc3Cl)cc2C1=O`, the RP-LC retention time was 735 s.

With `COc1ccc(NC(=O)NC2CCN(c3ccc(F)cc3)C2=O)cc1OC` (stereo unspecified) the RP-LC retention time was 722 s.

Work on `Cc1noc(COC2CCN(C(=O)NCCc3ccccc3)CC2)n1` yielded an RP-LC retention time of 694 s.

Work on `O=C(Cn1cnc2ccccc21)NCCNc1cc(-n2cccn2)ncn1` yielded an RP-LC retention time of 550 s.

Compound `Cn1nc(-c2nnc(-c3ccc(F)cc3)o2)c2c1CCN(S(=O)(=O)c1cccc(Cl)c1)C2` has an RP-LC retention time of 987 s.

In the case of `O=C1NCCCCCCN(C(=O)c2cccs2)[C@H]2CCC[C@@H]12`, the RP-LC retention time is reported as 745 s.

`CN1C(=O)c2[nH]nc(-c3ccccc3)c2C1c1ccc(O)cc1` (stereo unspecified) showed an RP-LC retention time of 670 s.

Compound `Cc1ccc(NC(=O)C2CCN(S(C)(=O)=O)c3ccccc3O2)c(C)c1` (stereo unspecified) has an RP-LC retention time of 894 s.

`COCCn1ncc(N2CCC(C(=O)Nc3cc(OC)cc(OC)c3)C2)cc1=O` (stereo unspecified) gave an RP-LC retention time of 684 s.

Compound `CCc1ccc(N2C=C(C(=O)N3CCOCC3)S(=O)(=O)c3ccc(Cl)cc32)cc1` has an RP-LC retention time of 936 s.

With `O=C(Nc1ccc2c(N3CCCCC3)ncnc2c1)c1cncc(Br)c1` the RP-LC retention time was 664 s.

`CCOC(=O)N1CCC2(CC1)N=C(c1ccc(F)cc1)CC(c1cccc(OC)c1O)N2` (stereo unspecified) gave an RP-LC retention time of 748 s.

Work on `CS(=O)(=O)Nc1ccc(-c2noc(-c3cncc(Br)c3)n2)cc1` yielded an RP-LC retention time of 877 s.

Compound `O=C(NCCc1ccccc1)C(=O)NCCc1cccs1` has an RP-LC retention time of 832 s.

In the case of `Cc1cnn(Cc2nc(-c3ccc(NC(=O)c4cc(C)on4)cc3)oc2C)c1`, the RP-LC retention time is reported as 876 s.

With `CCOC(=O)c1cccc(NC(=O)Cn2c(=O)c(CCC(=O)NC3CCCC3)nc3ccccc32)c1` the RP-LC retention time was 876 s.

Compound `O=C(c1cncc(Br)c1)N1CCN(c2ccc(-c3cccs3)nn2)CC1` has an RP-LC retention time of 651 s.

Compound `CCCN(CC1CCOC1)C(=O)Nc1ccc(C)c(Cl)c1` (stereo unspecified) has an RP-LC retention time of 959 s.

Work on `CC(C)c1cc(C(=O)Nc2ccc(F)cc2)nc2ccnn12` yielded an RP-LC retention time of 1090 s.

Compound `Cc1nc(-c2noc(-c3ccncc3)n2)cn1CC(=O)Nc1cccc(F)c1` has an RP-LC retention time of 833 s.

`COc1ccc(Cl)cc1C(=O)Nc1ccc(-c2cn3ccc(C)nc3n2)cc1` gave an RP-LC retention time of 727 s.

With `O=C(CN1CCC(COCc2ccccc2)CC1)Nc1ccc2c(c1)OCCO2` the RP-LC retention time was 605 s.
